# Measured values taken from US20160220557A1, “USE OF ACETYL-COA CARBOXYLASE INHIBITORS FOR TREATING ACNE VULGARIS” (PFIZER INC., priority 2013, published 2016).
# How the values were obtained:
# [1] = tested on: SZ95 human sebocyte cells; assay: Inhibition of de novo lipogenesis (14C-acetate incorporation) in cultured human sebocytes; type: cell-based; details: Homo sapiens, SZ95 sebocytes, 14C-acetate incorporation into lipids relative to vehicle; read-out: C9302E Sebocyte IC50
# Experimental: SZ95 sebocytes were grown in Human Sebocyte Growth Medium (HSGM) (Sebomed® medium (Biochrom: F8205) supplemented with 10% heat-inactivated fetal bovine serum, 1% penicillin/streptomycin, 1 mM calcium chloride and 5 ng/mL recombinant human epidermal growth factor (Life Tech: PHG0311)). At 90% confluence, cells were washed three times with PBS and then detached with 0.05% Trypsin-EDTA. Cells were centrifuged and resuspended in HSGM containing 10% charcoal-stripped serum (Life Tech: 12676-029). Cells were then plated in 24-well plates at a density of 0.25×10^6 cells/well and were incubated overnight to enable cell adherence to the culture plate.
# Cells were treated with a dose response of compound, and each dose was assayed in triplicate. Briefly, compounds were dissolved in DMSO stocks and diluted 1:1000 into charcoal-stripped media. 0.1% DMSO without compound was used as the vehicle control. After a 1 hour preincubation with compound or vehicle, 0.25 μCi ^14C-acetic acid (American Radiolabeled Chemicals: ARC0158B) was added to each well. Plates were then incubated for an additional two hours. At the end of the incubation period, cells were removed from incubator, placed on ice, and then washed twice with ice-cold PBS to remove free ^14C-acetic acid. Plates were sealed and stored at −20° C. until analysis.
# Plates were shaken for 1 hour at room temperature to induce lysis. Lysates were transferred to individual 1.5 mL polypropylene tubes, and wells were washed with 175 μl of PBS, which was added to lysates. 450 μl of a 1:1 (v/v) chloroform:methanol solution was then added to each tube, and then all tubes were vortexed for 10 seconds and centrifuged at 20,000×g for 5 minutes at room temperature to separate aqueous from organic phase. A 25 μl aliquot was removed from the bottom organic layer of each sample and added to 6 mL OptiPhase supermix (PerkinElmer: 1200-439) scintillation fluid. Counts of ^14C incorporated into lipids were assessed by scintillation counting. DNL (counts of ^14C incorporated into lipids) was expressed for compound treated cells relative to DNL in the vehicle control treated cells for determination of EC50 values. For a subset of the compounds tested, a second aliquot (3×35 μl) of the organic layer of each sample was removed and applied to a TLC lane (Analtech Silica Gel G Plates). Radiolabeled lipids were resolved using a 2-solvent system. Solvent 1 contained a 100:100:100:40:36 mixture of ethyl acetate:isopropyl alcohol:CHCl3:MeOH:0.25% KCl and solvent 2 a 70:27:3 hexane:diethyl ether:acetic acid mix. The TLC plate was dried under nitrogen for 30 minutes and [^14C]-calibrators added to a vacant lane. Bands were visualized and quantitated using a Molecular Dynamics' Storm 860 Phosphorimager system following 18-36 hours exposure to a Phosphorimager screen.
# [2] = tested on: de novo lipogenesis in ear skin and liver; assay: Effect of oral and topical ACCi on DNL (14C-acetate incorporation) in Syrian hamsters; type: in vivo, Syrian hamster; details: oral 100 mg/kg single dose, vs. vehicle
# Experimental: Male Syrian gold Hamster at ˜10 weeks were maintained adlibitum on standard hamster chow and water. […] Example 3 for topical delivery was prepared as a solution in a vehicle consisting of 70:30 (Ethanol:propylene glycol) at a concentration of 100 mg/ml. Topical administration of a single dose (5 ul/ear) was applied to hamster ears with a pipette (2-10 ul) tip adhering to 2 minute intervals following the dosing order. The dosing timing allowed for the formulation to spread evenly over an approximate 1 sq cm area and absorb/dry prior to returning the animal to the cage. 1 hour post ACCi dose each animal received an IP injection of ^14C-labeled acetate (ARC0158B diluted in saline) following the 2 minute interval timing format. Each animal received an individually calculated amount of ^14C-acetate based on body weight (0.1 μCi/g in a dosing volume of 2 μl/g). One hour after the ^14C-Acetate injection animals were sacrificed by CO2 asphyxiation.
# Liver and ear skin were collected for de novo lipogenesis determinations (^14C incorporation to lipid). Briefly, 2 liver punches totaling ˜400 mg of liver were collected from the bifurcated median lobe of each animal (using a 8 mm diameter Sklar Tru-punch—Sklar Instruments), rinsed with saline and blotted dry. The tissues were placed into pre-weighed in glass tubes (Pyrex 9826-16×125 mm with PTFE lined caps) containing NaOH (1.5 mL of 2.5 M).
# Ear skin samples were prepared for analysis in the following manner. One 8 mm distal biopsy punch (using an 8 mm diameter Sklar Tru-punch—Sklar Instruments) (2 per animal) was taken just above the anatomical “V” in the aural cartilage to standardize sample collection area. The punch was then split into 2 layers (anterior and posterior). The anterior (front) surface is retained for analysis. The anterior skin was placed into pre-weighed in glass tubes (Pyrex 9826-16×125 mm with PTFE lined caps) containing NaOH (1.5 mL of 2.5 M).
# Upon completion of the study, the liver and ear skin samples in NaOH were weighed and this weight was used to calculate the mass of the tissue collected. The capped tubes were heated in an dry oven (˜60° C.) until the tissue was fully degraded (˜4-6 hr, gentle vortexing 2-3 times during heating). Following degradation and cooling absolute ethanol (2.5 mL) was added to each sample. The tubes were recapped and vigorously mixed (vortexed) for 60 seconds and allowed to settle overnight at RT. Petroleum ether (4.8 mL) was added to each tube, recapped and the samples were vigorous mixed (60 sec). […] Aquasol-2 scintillation fluid (10 mL) (or other compatible scintillation fluid) was added to each vial and after vortexing the samples were counted in an appropriate scintillation counter (e g. Wallac Rack-Beta 1409 LSC). […]
# [3] = tested on: ear skin triglyceride levels; assay: Hamster ear triglyceride content after chronic treatment; type: in vivo, Syrian hamster; details: oral 30 mg/kg once daily for 19 days
# Experimental: Male Syrian gold hamsters weighing between 150-200 g (22-23 weeks) were maintained adlibitum on standard hamster chow and on a 12 hour light and dark cycle. […] At the end of the study period, animals were euthanized by CO2 asphyxiation. Hamster pinia (ear) were removed by punch biopsy (using an 8 mm diameter Sklar Tru-punch—Sklar Instruments). Punch biopsies were taken just above the anatomical “V” in the aural cartilage of each ear to standardize sample collection area. The punch was then split into 2 layers (anterior and posterior). The anterior (front) surface was retained for analysis. For liver samples the bifurcated medial lobe was removed, rinsed in saline and drained of blood by placing the cut end of the lobe on a sterile absorbent paper and using capillary action. The liver lobe was then flash frozen in liquid nitrogen. Two Qiagen 3 mm Tungsten beads were added to tubes containing individual anterior biopsies of hamster ear skin along with 500 ul of homogenization buffer (methanol:water 1:1 v/v). […] Ear skin triglyceride content was determined via LC-MS on the AB SCIEX Qtrap 5500. […] Lipid extracts were then analyzed by UPLC-MS/MS using a Waters Acquity UPLC coupled to an AB Sciex QTRAP 5500 mass spectrometer. […] Lipid species were then analyzed on the mass spectrometer using positive ion electrospray ionization in the multiple reaction monitoring (MRM) mode. […]
smiles,measurement,setting,value
"CC(C)(C)n1cc2c(n1)C(=O)CC1(CCN(C(=O)c3ccc4[nH]ncc4c3)CC1)O2 [Example 8, 2′-(tert-butyl)-1-(1H-indazole-5-carbonyl)-2′H-spiro[piperidine-4,5′-pyrano[3,2-c]pyrazol]-7′(6′H)-one]",IC50,[1],0.549 µM
same,suppression of incorporation of de novo synthesized fatty acids in liver,[2],85%
same,suppression of incorporation of de novo synthesized fatty acids in skin,[2],84%
same,ear skin triglyceride levels vs. vehicle,[3],No changes
